Measurements reported in patent US20020183366A1, “Cyclooxygenase-2 inhibitors, compositions and methods of use” (priority 2001, published 2002).

Columns and labels:
ovine COX-1 = molecular target: T1, ovine COX-1 (Ovis aries, UniProt P05979); test: COX Inhibitor Screening Assay, COX-1 activity; type: biochemical; settings: 100 μM test compound
T1 construct: purchased Cayman Chemical, Ann Arbor, Mich
T1 sequence (P05979 25-600): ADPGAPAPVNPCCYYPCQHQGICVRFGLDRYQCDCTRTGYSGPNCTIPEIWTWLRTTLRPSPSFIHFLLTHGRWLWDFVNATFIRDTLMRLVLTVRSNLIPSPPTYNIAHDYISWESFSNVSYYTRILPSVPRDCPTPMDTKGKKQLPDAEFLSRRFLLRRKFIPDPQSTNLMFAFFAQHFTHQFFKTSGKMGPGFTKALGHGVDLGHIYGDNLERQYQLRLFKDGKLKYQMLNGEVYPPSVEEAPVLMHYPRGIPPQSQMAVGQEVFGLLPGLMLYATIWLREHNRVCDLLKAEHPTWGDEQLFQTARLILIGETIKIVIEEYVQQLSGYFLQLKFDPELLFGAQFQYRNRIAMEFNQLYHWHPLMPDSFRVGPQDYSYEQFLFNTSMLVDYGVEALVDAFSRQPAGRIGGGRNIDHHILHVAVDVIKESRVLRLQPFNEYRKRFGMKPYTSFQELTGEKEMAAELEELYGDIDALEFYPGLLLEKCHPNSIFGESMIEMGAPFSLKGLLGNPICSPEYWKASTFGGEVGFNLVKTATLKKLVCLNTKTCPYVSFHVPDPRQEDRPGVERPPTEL
Protocol: (§1) The ovine COX-1 and human CO-2 activities and the measurement of the prostaglandin products synthesized were performed using the COX Inhibitor Screening Assay (Cayman Chemical, Ann Arbor, Mich., which also contained the Prostaglandin Screening EIA Kit, used for prostaglandin quantification). The test compounds were dissolved at 50 times the highest final reaction concentration in DMSO or any other suitable solvent as stock solutions. These stock solutions were then diluted in the same solvent. Eight glass test tubes (13×100 mm) were placed in a 37° C. water bath. To each test tube was added 950 μL of reaction buffer (0.1 M Tris-HCl, pH 8.0, containing 5 mM EDTA, and 2 mM phenol), 10 μL of 100 µM heme solution, and 10 μL (5 units) of either ovine COX-1 or human COX-2 and the resulting mixture was incubated with the enzyme for 2 minutes. Twenty μL of the solvent was added to one tube (100% initial activity or solvent control) and 20 μL of each dilution of the test compound was added to one tube each. Each tube was vortexed immediately after the addition. The enzyme was incubated with the inhibitor for 3.5 minutes at 37° C. The enzymatic reaction was then initiated by the addition of 10 μL of freshly prepared 10 mM arachidonic acid (neutralized with KOH), vortexed and then incubated for 2 minutes at 37° C. […]

human COX-2 = molecular target: T2, human COX-2 (Homo sapiens, UniProt P35354); test: COX Inhibitor Screening Assay, COX-2 activity; type: biochemical
T2 construct: purchased Cayman Chemical, Ann Arbor, Mich
T2 sequence (P35354 18-604): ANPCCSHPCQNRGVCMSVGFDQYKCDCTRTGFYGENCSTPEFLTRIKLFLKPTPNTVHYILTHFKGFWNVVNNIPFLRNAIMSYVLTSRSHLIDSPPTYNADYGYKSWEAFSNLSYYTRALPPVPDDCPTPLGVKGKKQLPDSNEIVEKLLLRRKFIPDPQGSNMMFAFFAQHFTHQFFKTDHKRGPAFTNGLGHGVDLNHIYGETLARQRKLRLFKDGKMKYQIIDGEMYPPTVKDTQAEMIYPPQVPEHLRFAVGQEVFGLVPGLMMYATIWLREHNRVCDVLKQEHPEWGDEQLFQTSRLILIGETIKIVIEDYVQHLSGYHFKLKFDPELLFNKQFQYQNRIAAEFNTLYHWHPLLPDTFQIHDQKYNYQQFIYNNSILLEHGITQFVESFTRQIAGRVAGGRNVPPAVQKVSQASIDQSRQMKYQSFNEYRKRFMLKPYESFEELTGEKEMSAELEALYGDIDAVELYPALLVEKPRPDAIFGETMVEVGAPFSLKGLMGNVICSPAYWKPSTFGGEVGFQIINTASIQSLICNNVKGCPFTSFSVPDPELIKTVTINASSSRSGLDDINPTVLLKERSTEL
Protocol: as §1

How did the “COX-1 Inhibition (% at 100 μM)” value (ovine COX-1) turn out when `O=C1OCC(c2ccc(S(=O)(=O)CF)cc2)=C1c1ccccc1` [Example 1, 4-(4-((Fluoromethyl)sulfonyl)phenyl)-3-phenyl-5-hydrofuran-2-one] was run?
The value was 30%.

What about the “COX-2 Inhibition (% at 10 μM)” value (human COX-2; 10 μM test compound, human COX-2) of the same molecule?
The value was 40%.

What about the COX-2 selectivity (human COX-2; COX-2 versus COX-1, from Table 1) of the same molecule?
The COX-2 selectivity was “has COX-2 selectivity”.
